The values that follow come from patent US12390437B2, “Itaconic acid derivatives and uses thereof intreating an inflammatory disease or a disease associated with an undesirable immune response” (Sitryx Therapeutics Limited, priority 2019, dated 2025).

Where a name gives a salt, the structure may show the parent alone.

Common to all, as to assay type: cell-based
For one assay, the system named is NQO1. Nature of the assay: NQO1 enzyme activation assay as a readout of NRF2 activation in THP-1 cells. The following applies: Homo sapiens; for Emax: THP-1, percentage activation at top concentration, normalised to DMF (100%) and vehicle controls; for EC50: differentiated THP-1 cells, LPS, 48 hr. On the procedure:
NQO1 Enzyme Activation Assay as a Readout of NRF2 Activation in THP-1 Cellular Background
NAD(P)H dehydrogenase [quinone] […] Induction of this gene is concomitant with the inhibition of proinflammatory cytokine transcription and suppression of the inflammatory response (Kobayashi E. H. et al., 2016). The NQO1 enzyme activation activities of compounds of formula (IW-1) were determined using a cellular based NQO1 activation assay (Abcam). The NQO1 activation assay was run in differentiated THP-1 cells (a human monocyte-like cell line) as described below. All reagents described are from Sigma-Aldrich unless specified otherwise. Compounds were prepared as 10 mM DMSO stocks.
THP-1 cells were expanded as a suspension up to 80% confluence in appropriate growth medium. Cells were harvested, suspended, treated with phorbol 12-myristate 13-acetate (PMA) and plated according to the cell density required for each plate format over a 72 hr period (37° C./5% CO2).
Following 72 hrs of THP-1 cell incubation, cellular medium was removed and replaced with fresh media. Working concentrations of compounds were prepared and pre-incubated for 30 minutes (37° C./5% CO2). Compound treatment was then applied to the PMA treated THP-1 cell plate followed by LPS treatment. A ‘low’ (DMSO vehicle only) control and ‘high’ (designated concentration of dimethyl fumarate) was applied to each plate at the point of compound treatment. Cells were subsequently incubated for a 48 hr period (37° C./5% C02) after which all NQO1 assay reagents were prepared according to the manufacturer's instructions. NQO1 extraction buffer was applied to PBS washed THP-1 cells and incubated on ice for 15 minutes to prepare THP-1 lysates for the NQO1 activity assay. THP-1 lysates were diluted 1:5 with PBS and treated with a 1:1 volume of kit prepared NQO1 Reaction Buffer. Absorbance was subsequently measured kinetically on an appropriate reader over a 6 minute period.
For activation determination, the fold change in response per well was determined by first calculating the average NQO1 activation data for the vehicle control and then dividing the individual well response by the averaged NQO1 response for the vehicle control as shown below: Fold change=(Sample value)/MeanMin Where ‘Min’=vehicle control only
The relative 50% activation concentration (EC50) was determined from the resulting fold change response curve. The maximum efficacy (Emax) was reported as the percentage activation calculated at the top concentration of compound used in the titration applied. If a full curve was unattainable preventing a correct curve fit, the Emax value was extrapolated using existing curve data. All percentage activation data were normalised to the DMF and vehicle controls, meaning the Emax represents the percentage […] achieved by a compound at a particular concentration relative to that achieved by DMF (set as the ‘High’ control and therefore representative of 100% activation).

Assay [1] concerns IL-1β cytokine output from isolated primary human monocytes. Put plainly: Primary human monocyte AlphaLISA IL-1β cytokine assay. The following applies: CD14+ primary human monocytes, LPS 24 hr then Nigericin 1 hour; for IC50: Monocyte. The method, then: Measuring Inhibitory Effects on IL-1β and IL-6 Cytokine Output from Isolated Primary Human Monocytes
The cytokine inhibition profiles of compounds of formula (IW-1) were determined in a CD14^+ isolated primary human monocyte cell assay. All assays were performed in RPMI-1640 growth medium (Gibco), supplemented with heat-inactivated fetal bovine serum (FBS) and 1% penicillin-streptomycin unless specified otherwise. The IL-1β and IL-6 cytokine inhibition assays were each run in a background of isolated primary human monocyte cells as described below. All reagents described were from Sigma-Aldrich unless specified otherwise. Compounds were prepared as 100 mM DMSO stocks.
Primary peripheral blood mononuclear cells (PBMCs) were isolated from human whole blood. Following PBMC isolation, a CD14^+ monocyte isolation step was conducted whereby CD14^+ magnetic beads (Miltenyi Biotec) were incubated for 15 minutes with the PBMC suspension that was previously treated with ice cold T-cell isolation buffer (PBS, 0.5% BSA, 2 mM EDTA). Following bead incubation, the treated cell suspension was passed through a magnetic separation column designed to positively select for magnetically labelled cells. The isolated CD14^+ monocytes were subsequently plated at the appropriate cell density for the assay, prior to compound treatment on the day of plating. Working concentrations of compounds were prepared separately in RPMI-1640 only growth medium and pre-incubated with the cells for 30 minutes (37° C./5% CO2). Following the 30 minute compound pre-incubation, primary monocytes were treated with an appropriate concentration of LPS and subsequently incubated for a 24 hr period (37° C./5% CO2). An appropriate final concentration of Nigericin was then dispensed into the primary monocyte plates and incubated for 1 hour (37° C./5% CO2) before monocyte supernatants were harvested and collected in separate polypropylene 96-well holding plates prior to commencing the AlphaLISA cytokine assay.
Reagents from each of the IL-1β and IL-6 commercial kits (Perkin Elmer) were prepared and run according to the manufacturer's instructions. Subsequently, fluorescence signal was measured in a microplate reader (EnVision® Multilabel Reader, Perkin Elmer).
(§1) Percentage inhibition was calculated per cytokine by normalising the sample data to the high and low controls used within each plate (+/−LPS respectively). Percentage inhibition was then plotted against compound concentration and the 50% inhibitory concentration (IC50) was determined from the resultant concentration-response curve.

The subject of assay [2] is IL-1β cytokine output from isolated primary HMDMs. Nature of the assay: Primary human monocyte derived macrophages (HMDMs) AlphaLISA IL-1β cytokine assay. The settings on record: primary HMDMs (M-CSF 7 day), LPS 24 hr then Nigericin 1 hour. The method, then: Measuring Inhibitory Effects on IL-1β Cytokine Output from Isolated Primary HMDMs
The cytokine inhibition profiles of compounds of formula (IW-1) were determined in a monocyte differentiated macrophage cell assay. All assays were performed in RPMI-1640 growth medium (Gibco), supplemented with heat-inactivated fetal bovine serum (FBS) and 1% penicillin-streptomycin unless specified otherwise. The IL-1β cytokine inhibition assay was run in a background of isolated primary HMDM cells as described below. All reagents described were from Sigma-Aldrich unless specified otherwise. Compounds were prepared as 100 mM DMSO stocks.
Primary peripheral blood mononuclear cells (PBMCs) were isolated from human whole blood. Following PBMC isolation, a CD14^+ monocyte isolation step was conducted whereby CD14^+ magnetic beads (Miltenyi Biotec) were incubated for 15 minutes with the PBMC suspension that was previously treated with ice cold T-cell isolation buffer (PBS, 0.5% BSA, 2 mM EDTA). Following bead incubation, the treated cell suspension was passed through a magnetic separation column designed to positively select for magnetically labelled cells. The isolated CD14^+ monocytes were subsequently plated at an appropriate cell density and treated fora 7 day period with M-CSF (BioLegend) to drive macrophage differentiation. Following the differentiation period, working concentrations of compounds were prepared separately in RPMI-1640 only growth medium and pre-incubated with the cells for 30 minutes (37° C./5% CO2). Following the 30 minute compound pre-incubation, primary HMDMs were treated with an appropriate concentration of LPS and subsequently incubated for a 24 hr period (37° C./5% CO2). Nigericin was added and incubated for 1 hour prior to harvesting primary HMDM supernatants and collected in separate polypropylene 96-well holding plates prior to commencing the AlphaLISA cytokine assay.
Reagents from the IL-1β commercial kit (Perkin Elmer) was prepared and run according to the manufacturer's instructions. Subsequently, fluorescence signal was measured in a microplate reader (EnVision® Multilabel Reader, Perkin Elmer).
as §1
For orientation: In Alpha technology, singlet oxygen from a donor bead excites a nearby acceptor bead.

One may read the Emax as the greatest response seen or fitted, relative to the assay's reference. As a reminder, the EC50 is the concentration needed to bring the measured effect to its halfway point. The low end stands for an effect from little substance, the high end for a need for much substance. One may read the IC50 as the concentration at which inhibition is half-maximal. Low values mean greater potency in that assay, high ones weaker potency in that assay.

In the assay with NQO1, `C=C(CC(=O)OCCCCCCCC)C(=O)OCCC#N` [Example 1, 1-(2-cyanoethyl) 4-octyl 2-methylenesuccinate] gave an Emax of 167%. This compound also displayed an EC50 in the assay on NQO1 of 6.9 µM. The IC50 was 8.9 µM in assay [1] and 0.4 µM in assay [2].

Take `C=C(CC(=O)OCCCCCCCC)C(=O)OCCS(C)(=O)=O` [Example 2, 1-(2-(methylsulfonyl)ethyl) 4-octyl 2-methylenesuccinate]: in the assay on NQO1, the Emax is 213% and the EC50 was 4.6 µM. Further, in assay [1], the “IL-1β (IC50)” value is listed as “lower IC5s than dimethyl fumarate” and 3.6 µM corresponded to half-maximal inhibition (IC50). Moreover, the IC50 in assay [2] worked out at 0.3 µM.

In the assay on NQO1, `C=C(CC(=O)OCCCCCCCC)C(=O)OCCC(F)(F)F` [Example 3, 4-octyl 1-(3,3,3-trifluoropropyl) 2-methylenesuccinate] came in with an Emax of 91% and an EC50 of 14.7 µM. In assay [1], the “IL-1β (IC50)” value was “lower IC5s than dimethyl fumarate” and half-maximal inhibition (IC50) was put at 3.9 µM. The IC50 in assay [2] is 0.7 µM.

In the assay with NQO1, `C=C(CC(=O)OCCCCCCCC)C(=O)OC1COC1` [Example 4, 4-octyl 1-(oxetan-3-yl) 2-methylenesuccinate] gave an Emax of 171% and an EC50 of 13.6 µM. In assay [2], this compound yielded a half-inhibitory concentration (IC50) of 0.4 µM.

In the assay with NQO1, `C=C(CC(=O)OCCCCCCCC)C(=O)OCCN1C(=O)CCC1=O` [Example 9, 1-(2-(2,5-dioxopyrrolidin-1-yl)ethyl) 4-octyl 2-methylenesuccinate] displayed an Emax of 98% and an EC50 of 9.8 µM. Moreover, in assay [1], the “IL-1β (IC50)” value is recorded as “lower IC5s than dimethyl fumarate” and the midpoint of inhibition, the IC50, lay at 3.3 µM. In addition, 1.2 µM corresponded to half-maximal inhibition in assay [2] (IC50).

`C=C(CC(=O)O[C@H](C)CCCCCC)C(=O)OCCC(=O)O` [Example 88, (R)-3-((2-methylene-4-(octan-2-yloxy)-4-oxobutanoyl)oxy)propanoic acid] came in with an IC50 in assay [1] of 17.3 µM.

In assay [1], `C=C(CC(=O)OC1CCCCCCC1)C(=O)OCC(=O)O` [Example 90, 2-((4-(cyclooctyloxy)-2-methylene-4-oxobutanoyl)oxy)acetic acid] came in with an IC50 of 81.3 µM.

For `C=C(CC(=O)O[C@H](C)CCCCCC)C(=O)OCC(=O)O` [Example 112, (R)-2-((2-methylene-4-(octan-2-yloxy)-4-oxobutanoyl)oxy)acetic acid], the midpoint of inhibition in assay [1], the IC50, lay at 13.7 µM. This IC50 lies about 5.9-fold lower than the previous one.

Consider `COC(=O)/C=C/C(=O)OC` [dimethyl fumarate, reference compound], for which, in the assay with NQO1, the Emax was determined as 126% and the EC50 amounted to 12.9 µM. This compound also had an IC50 in assay [1] of 8.5 µM. This compound also returned an IC50 in assay [2] of 2 µM.

Turning to `C=C(CC(=O)OC)C(=O)OC` [dimethyl itaconate, reference compound], in the assay on NQO1, the Emax turned out to be 144% and the EC50 was 74.1 µM.
